Source: patent publication US20150376216A1, “SUGAR-ANALOG PHOSPHORUS-CONTAINING HETEROCYCLES HAVING AN ANTI-METASTATIC ACTIVITY” (CENTRE NATIONAL DE LA RECHERCHE SCIENTIRIQUE, priority 2013, published 2015)
Like-named read-outs stand apart in the source and are kept apart here. One block for each molecule: values may come before it.

Columns and labels:
[1] = Acute in vivo toxicity; details: healthy mice; 50, 25, 10, 5 and 1 mg/kg; maximum dose 50 mg/kg
Protocol: Studies of the acute toxicity of compounds 3.48a and 4.2a were performed on healthy mice for a concentration range of 50, 25, 10, 5 and 1 mg/kg.

[2] = system: Gli4 cells; experiment: Gli4 intracranial model; type: in vivo, mice
Protocol: 2×10^5 Gli4 cells were injected into a group of mice (right striatal injection, injection coordinates: bregma 0 L-L: L: −1.5 mm P: −3.5-2.5). The mice were immediately treated for four weeks at a rate of three injections at 10 mg/kg of compound 3.48a per week (formulation 1, group B) or using 100 μl of NaCl according to the same treatment protocol (group A) and sacrificed after ten weeks.
In the group of control mice (group A), dispersed Gli4 cells are observed, which migrated along the corpus callosum and passed into the other hemisphere. […] This migration reflects migration along the white matter, as observed in human glioblastoma multiformes (dispersion as an intra-fascicular growth along the white matter).

[3] = system: Gli7 GBM stem cells; experiment: Boyden chamber migration test, Gli7; type: cell-based, human; details: 24 hours, read-out: Inhibition constant Ki, migration
Protocol: (§1) The effects of compounds 3.48a, 4.2a and 5.6d on the migration of cancer cells (human glioblastoma line SNB75 or primary culture of human glioblastoma Gli4F1, on the one hand, and MDAMB 435 and A431 on the other hand), were determined by performing a standard migration test in a Boyden chamber (treatment of the cells for 24 hours).
(§2) For this test, the compounds were dissolved in vitro and used in culture in 0.3% of DMSO. The interior of the inserts was covered with the extracellular matrix protein studied (laminin-1, vitronectin or fibronectin). The cells pretreated at various concentrations and untreated (controls) were deposited in the inserts covered with said protein at a rate of 50 000 cells/500 μl/insert in a medium containing 0.1% of BSA (bovine serum albumin).
(§3) 500 μl of medium containing 10% fetal calf serum were then placed in each well of a Companion plate so as to allow the formation of a chemotactic gradient across the porous membrane. After 24 hours of migration in the incubator at 37° C., the supernatent was removed and the inserts rinsed with PBS on each face. The cells were counted with a microscope (Zeiss Axiophot, magnification ×200). This gives a percentage of migration relative to the untreated cells.
(§4) Table 2 below gives, for compound 3.48a, the values for the inhibition constants (Ki) for the migration of a human GBM line (SNB75), of GBM stem cell lines (Gli4, Gli7) and of a breast cancer line MDAMB231, in a Boyden chamber, on various extracellular matrix protein supports. Tables 3 and 4 below give, for compounds 4.2a and 5.6d, the values of the inhibition constants (Ki) for the migration of a melanoma line (MDAMB-435) or of an epidermoid cancer line (A431), in a Boyden chamber, on various extracellular matrix protein supports. The inhibitory effect depends on the line and the stem cells used, but also on the extracellular matrix protein support used.

[4] = system: GBM line C6; experiment: Boyden chamber migration test, C6; type: cell-based, rat; details: various extracellular matrix substrates
[5] = system: Gli4 GBM stem cells; experiment: Boyden chamber migration test, Gli4; type: cell-based, human; details: 24 hours, read-out: Inhibition constant Ki, migration
Protocol: as §1, §2, §3, §4

[6] = system: SNB75 cells; experiment: SNB75 subcutaneous model; type: in vivo, mice
Protocol: Nude female mice 4-5 weeks old with an average weight of […], supplied by the R. Janvier breeding center, were used. The mice were kept in a pathogen-free environment and with food and water present ad libitum. The experiments were commenced after one week of acclimatizing the mice to their new environment.
A suspension of 5×10^6 SNB75 cells in 100 μl of sterile PBS (phosphate-buffered saline, provided by Fisher) was injected into each mouse (subcutaneous administration without anesthesia). Once the mice presented tumors with volumes of between […], groups were formed so that each of them contained an equivalent number of large, medium and small tumors. The protocol was conducted with five groups of seven mice. The five groups of mice were treated using one of the five formulations described below:
Group A: Treatment by injection of 100 μl of NaCl (control N° 1).
Group B: Treatment with compound 3.48a at a rate of 10 mg/kg with volumes of 100 to 150 μl of formulation 2 according to the weight of the mice.
Group C: Treatment with compound 3.48a at a rate of 5 mg/kg with volumes of 100 to 150 μl of formulation 2 according to the weight of the mice.
Group D: Treatment with temozolomide at a rate of 20 mg/kg with volumes of 100 to 150 μl according to the weight of the mice. Temozolomide is a comparative anticancer active principle sold under the name Temodal by the laboratory Schering Plough. It is indicated for treating glioblastoma multiforme.
Group E: Treatment by injection of 100 to 150 μl according to the weight of the mice of formulation 2 not containing compound 3.48a (control N° 2).
Each batch was treated by intravenous injection into the caudal vein of 100 to 150 μl of solution (precision syringe and G25X1 needle ultrafine wall, VWR). Three injections per week for four weeks were performed. The mice were weighed at each injection. The sizes of the tumors were measured twice a week for a period of four weeks. The mice were sacrificed after four weeks and the tumors and organs (liver, kidney, spleen, brain, intestine, heart, muscles) were removed. A histological analysis was performed on these organs.

[7] = Solubility / formulation behaviour; type: physicochemical
Protocol: The following two formulations are particularly suited to compounds 3.48a and 4.2a and allow their in vivo administration, at concentrations of about 20-100 mg/kg, intravenously: […]

[8] = system: SNB75 human GBM line; experiment: Boyden chamber migration test, SNB75; type: cell-based; details: for Ki: SNB75, 24 hours, read-out: Inhibition constant Ki, migration
Protocol: as §1, §2, §3, §4

[9] = system: DU145; experiment: MTT antiproliferative test, DU145; type: cell-based; details: Homo sapiens, DU-145, read-out: IC50, inhibition of proliferation
Protocol: (§5) The lines MDAMB-435 and A431 are seeded at a density of 3000 cells per well in 96-well plates. After 24 hours, compounds 4.2a and 5.6d resuspended in 100% DMSO are added at concentrations of 0-0.001-0.010-0.1-1-10-50 μM for a final constant amount of DMSO of 0.3%. The cultures are maintained for a further 72 hours and an MTT colorimetric test is then performed. 100 μl of a solution of MTT at 5 mg/ml in PBS are added to the culture medium, which is left to incubate for 3 hours. The culture medium is removed and the cells are lyzed by adding 100 μL of a 4 mM HCl solvent, 0.1% Nondet P-40 (NP40) in isopropanol. The yellow tetrazolium MTT salt (3-(4,5-dimethylthiazol-2-yl)-2,5-diphenyl tetrazolium bromide), when it is reduced by the mitochondrial succinate dehydrogenase of active live cells, forms a blue-violet formazan product. The medium then changes from yellow to blue-violet. The intensity of this coloration at 590 nm is proportional to the number of live cells present during the test and gives an indication of the metabolic activity of these cells.
(§6) Table 1 gives the concentration values for 50% inhibition of proliferation (IC50) for compounds 4.2a and 5.6d on lines derived from bowel cancer (CaCo2), skin cancer (A431, MDAMB-435, B16F10), breast cancer (MDAMB-431), […] (HuH7), prostate cancer (DU145) and brain cancer (SNB75, Gli4, Gli7).

[10] = system: SNB75 glioblastoma line; experiment: MTT antiproliferative test, SNB75; type: cell-based; details: Homo sapiens, SNB-75, read-out: IC50, inhibition of proliferation
Protocol: (§7) Several cancer cell lines were used for the in vivo or in vitro biological tests: • SNB75 is a human glioblastoma line derived from a primary culture, i.e. derived from a primary malignant cancer tumor. It forms part of the panel of 59 cancer lines referenced by the NCI. Its Cosmic reference number published by the Welcome Trust Sanger Institute is 905982. This line was supplied by a person (M.D. Ph.D of the department of “Radiation Oncology”, Stanford University Medical Center). It was cultured in Ham's F-12 and DMEM (1/1) supplemented with 10% fetal bovine serum. The experiments were performed with cells in the exponential growth phase. • Gli4 (or Gli4F11) and Gli7 are cultures of cancer strain cells derived from human glioblastomas (primary cultures). These lines are CD133^+, CD15^+ which are multipotent and tumorigenic in animals. They were established by J. P. Hugnot (INM INSERM U-1051 Eq. 4), and described in Guichet, P. O. et al, Glia 2013, 61(2), 225-239; • C6 is a rat glioblastoma line. It is referenced in the ATCC under the reference CCL-107. • MDAMB-435 is a melanoma line derived from a mammary melanoma. It forms part of the panel of 59 cancer lines referenced by the NCI. It is referenced at the ATCC under the reference HTB-129. It was cultured in Ham's F-12 and DMEM (1/1) supplemented with 10% fetal bovine serum. […]

[11] = system: C6 glioblastoma line; experiment: MTT antiproliferative test, C6; type: cell-based; details: Rattus norvegicus, read-out: IC50, inhibition of proliferation
Protocol: as §7

[12] = system: CaCo2; experiment: MTT antiproliferative test, CaCo2; type: cell-based; details: Homo sapiens, Caco-2, read-out: IC50, inhibition of proliferation
Protocol: as §5, §6

[13] = system: MDAMB-435 melanoma line; experiment: MTT antiproliferative test, MDAMB-435; type: cell-based; details: Homo sapiens, MDA-MB-435, 72 hours, read-out: IC50, inhibition of proliferation
Protocol: as §5, §6

[14] = system: MDAMB-231; experiment: MTT antiproliferative test, MDAMB-231; type: cell-based; details: Homo sapiens, MDA-MB-231, read-out: IC50, inhibition of proliferation
Protocol: as §5, §6

[15] = system: GLi4; experiment: MTT antiproliferative test, Gli4; type: cell-based; details: Homo sapiens, read-out: IC50, inhibition of proliferation
Protocol: as §7

[16] = system: epidermoid cancer line A431; experiment: Boyden chamber migration test, A431; type: cell-based, human; details: for Ki: 24 hours, read-out: Inhibition constant Ki, migration
Protocol: as §1, §2, §3, §4

[17] = system: A431 line; experiment: MTT antiproliferative test, A431; type: cell-based, human; details: A-431, read-out: IC50, inhibition of proliferation
Protocol: as §5, §6

[18] = system: Gli7; experiment: MTT antiproliferative test, Gli7; type: cell-based; details: Homo sapiens, read-out: IC50, inhibition of proliferation
Protocol: as §7

[19] = system: HuH7; experiment: MTT antiproliferative test, HuH7; type: cell-based; details: Homo sapiens, Huh-7, read-out: IC50, inhibition of proliferation
Protocol: as §5, §6

[20] = system: B16F10; experiment: MTT antiproliferative test, B16F10; type: cell-based; details: Mus musculus, B16-F10, read-out: IC50, inhibition of proliferation
Protocol: as §5, §6

[21] = 10 and 5 mg/kg i.v. (groups B and C), three injections per week for four weeks

Structure (SMILES): O=[P@@]1(c2ccccc2)O[C@H](COCc2ccccc2)[C@@H](OCc2ccccc2)[C@H](OCc2ccccc2)[C@H]1O [Compound 3.48a, 4,5-bis-benzyloxy-6-benzyloxymethyl-2-phenyl-2-oxo-2λ^5-[1,2]oxaphosphinan-3-ol]
Mortality, acute toxicity [1]: No mortality was observed
Cell migration in brain during treatment ([2]; 10 mg/kg, three injections per week, four-week treatment (formulation 1)): made it possible to inhibit cell migration
Cell growth and migration after stopping the treatment ([2]; final six weeks after the four-week treatment at 10 mg/kg): resumption of the growth and migration of the cells was observed
Ki ([3]; support Fibronectin): 37 nM
Ki ([3]; support Laminin): 310 nM
Ki ([3]; support Vitronectin): 371 nM
Inhibition of cell migration [4]: inhibits the cell migration
Ki ([5]; support Fibronectin): 1 nM
Ki ([5]; support Laminin): 11 nM
Ki ([5]; support Vitronectin): 5 nM
Mortality [6, 21]: none of the mice died
Weight loss [6, 21]: no weight loss was observed
Growth of the primary tumor ([6]; 10 and 5 mg/kg i.v. (groups B and C), three injections per week, after four weeks, vs control groups): a very great reduction in the growth of the primary tumor
Development of metastases ([6]; 10 and 5 mg/kg i.v. (groups B and C), controls all developed metastases in liver and intestine): None of the mice treated with compound 3.48a (groups B and C) developed metastases
Metastases in the liver (FIG. 1A) ([6]; a mouse from group B (10 mg/kg), eight weeks after implantation): absence of metastases in the liver
Complexation in cyclodextrins [7]: non-complexible in cyclodextrins
Solubility ([7]; water, water-soluble solvents): insoluble in water, in numerous water-soluble solvents
IC50 ([8]; Homo sapiens, SNB-75, SNB75 line, on fibronectin or vitronectin, read-out: Concentration for a 50% decrease in migration of the cancer cells): 1 to 100 nM
Ki ([8]; support Fibronectin): 27 nM
Ki ([8]; support Laminin): 23000 nM
Ki ([8]; support Vitronectin): 87 nM

IC50 [9]: 31200 nM
IC50 [10]: 650 nM
IC50 [11]: 650 nM
IC50 [12]: 36000 nM
IC50 [13]: 9610 nM
IC50 [14]: 23200 nM
IC50 ([16]; Homo sapiens, A-431, on fibronectin or vitronectin, read-out: Concentration for a 50% decrease in migration of the cancer cells): 10 to 100 nM
Ki ([16]; support Fibronectin): 8 nM
Ki ([16]; support Laminin): 13 nM
Ki ([16]; support Vitronectin): 20 nM
IC50 ([17]; A431 line (human epidermoid cancer)): 100 nM
IC50 ([17]; Homo sapiens, A431, 72 hours, MTT): 130 nM
IC50 [19]: 22000 nM
IC50 [20]: 14900 nM
Structure (SMILES): CC(=O)N[C@@H]1[C@H]2OC(C)(C)O[C@H]2[C@@H]([C@H]2COC(C)(C)O2)O[P@@]1(=O)c1ccccc1 [Compound 5.6d]
IC50 [15]: 540 nM
IC50 [18]: 500 nM

Structure (SMILES): Cn1nnc2c(C(N)=O)ncn2c1=O [temozolomide, reference compound]
Weight loss ([6]; 20 mg/kg i.v. (group D), remaining four mice): substantial weight losses
Mortality ([6]; 20 mg/kg i.v. (group D), seven mice): three of the seven mice died after the third injection
Lethality at higher dose ([6]; dose of 40 mg/kg): leads to the death of the mice before the end of the experimentation period
